Data: US8455485B2, “Pyrazolo pyridine derivatives as NADPH oxidase inhibitors” (Genkyotex SA, priority 2008, dated 2013)

Test system: NOX activity
Experiment: Amplex Red measurement of extracellular hydrogen peroxide (NOX activity) using DMSO-differentiated HL60 cells
Format: cell-based, human
Settings: Amplex red, DMSO-differentiated HL60 cells; compound concentration not stated
Method: Human acute myeloid leukemia cell line HL-60 was cultured in RPMI 1640 (Invitrogen) supplemented with 10% heat-inactivated calf serum, 2 mM glutamine, 100 U/mL penicillin (Sigma), and 100 μg streptomycin (Sigma) at 37° C. under a humidified atmosphere of 5% CO2. HL60 differentiation to the neutrophil phenotype was triggered by adding Me2SO (final concentration 1.25% v/v for 6 days) to the culture medium.
Extracellular hydrogen peroxide was measured using Amplex UltraRed (Molecular Probes). Cells were trypsinized (1× Trypsin-EDTA), collected by centrifugation, and resuspended in HBSS supplemented with 1% glucose. Cells were seeded into black 96-well plates at a density of 50′000 cells in 200 μl testing buffer (HBSS 1% glucose containing 0.005 U/mL horseradish peroxidase (Roche) and 50 μM Amplex Red in the presence or absence of compounds according to the invention. As a control, DPI was included at a final concentration of 10 μM The plates were placed in the fluorescent Optima Fluorescent plate reader and kept at 37° C. during 20 min Fluorescence was measured for […] with excitation and emission wavelengths of 544 nm and 590 nm respectively. NOX activities were expressed as % of the activity in control cells. Residual activity of DPI-treated cells was usually <10%.
The Table 2 below summarizes the percentage of inhibition of NOX activity as measured by Amplex red using DMSO-differentiated HL60 cells as described above: […]

O=c1c2c(CN3CCOCC3)n(Cc3ccccc3)c(=O)cc2[nH]n1-c1ccccc1Cl [Compound 1, 5-benzyl-2-(2-chlorophenyl)-4-(morpholin-4-ylmethyl)-1H-pyrazolo[4,3-c]pyridine-3,6(2H,5H)-dione]
Inhibition (%) of NOX activity: 80%

CCCCc1c2c(=O)n(C)[nH]c2cc(=O)n1Cc1ccccn1 [Compound 3, 4-butyl-2-methyl-5-(pyridin-2-ylmethyl)-1H-pyrazolo[4,3-c]pyridine-3,6(2H,5H)-dione]
Inhibition (%) of NOX activity: 84%

CCCCc1c2c(=O)n(-c3ccc(OCc4ccccc4)cc3)[nH]c2cc(=O)n1Cc1ccc(Cl)cc1 [Compound 4, 2-[4-(benzyloxy)phenyl]-4-butyl-5-(4-chlorobenzyl)-1H-pyrazolo[4,3-c]pyridine-3,6(2H,5H)-dione]
Inhibition (%) of NOX activity: 69%

CCCCc1c2c(=O)n(-c3ccc(OCc4ccccc4)cc3)[nH]c2cc(=O)n1C [Compound 5, 2-[4-(benzyloxy)phenyl]-4-butyl-5-methyl-1H-pyrazolo[4,3-c]pyridine-3,6(2H,5H)-dione]
Inhibition (%) of NOX activity: 94%

CCCCc1c2c(=O)n(-c3ccc(F)cc3Cl)[nH]c2cc(=O)n1Cc1ccco1 [Compound 7, 4-butyl-2-(2-chloro-4-fluorophenyl)-5-(furan-2-ylmethyl)-1H-pyrazolo[4,3-c]pyridine-3,6(2H,5H)-dione]
Inhibition (%) of NOX activity: 91%

CCCCc1c2c(=O)n(-c3ccc(F)cc3Cl)[nH]c2cc(=O)n1CCOC [Compound 9, 4-butyl-2-(2-chloro-4-fluorophenyl)-5-(2-methoxyethyl)-1H-pyrazolo[4,3-c]pyridine-3,6(2H,5H)-dione]
Inhibition (%) of NOX activity: 76%

CCCCc1c2c(=O)n(-c3ccc(F)cc3Cl)[nH]c2cc(=O)n1CCc1ccccn1 [Compound 10, 4-butyl-2-(2-chloro-4-fluorophenyl)-5-(2-pyridin-2-ylethyl)-1H-pyrazolo[4,3-c]pyridine-3,6(2H,5H)-dione]
Inhibition (%) of NOX activity: 78%

COCCCn1c(CN(C)Cc2ccccc2)c2c(=O)n(-c3ccc(F)cc3Cl)[nH]c2cc1=O [Compound 12, 4-{[benzyl(methyl)amino]methyl}-2-(2-chloro-4-fluorophenyl)-5-(3-methoxypropyl)-1H-pyrazolo[4,3-c]pyridine-3,6(2H,5H)-dione]
Inhibition (%) of NOX activity: 79%

CCCCc1c2c(=O)n(-c3ccc(F)cc3Cl)[nH]c2cc(=O)n1Cc1ccccc1CN1CCOCC1 [Compound 14, 4-butyl-2-(2-chloro-4-fluorophenyl)-5-[2-(morpholin-4-ylmethyl)benzyl]-1H-pyrazolo[4,3-c]pyridine-3,6(2H,5H)-dione]
Inhibition (%) of NOX activity: 86%

COCc1c2c(=O)n(-c3cccc(Cl)c3)[nH]c2cc(=O)n1Cc1ccccn1 [Compound 23, 2-(3-chlorophenyl)-4-(methoxymethyl)-5-(pyridin-2-ylmethyl)-1H-pyrazolo[4,3-c]pyridine-3,6(2H,5H)-dione]
Inhibition (%) of NOX activity: 89%

Cn1[nH]c2cc(=O)n(Cc3ccccn3)c(CCCOc3ccccc3)c2c1=O [Compound 30, 2-methyl-4-(3-phenoxypropyl)-5-(pyridin-2-ylmethyl)-1H-pyrazolo [4,3-c]pyridine-3,6(2H,5H)-dione]
Inhibition (%) of NOX activity: 92%

COCCn1c(CN2CCCC2)c2c(=O)n(Cc3ccccc3)[nH]c2cc1=O [Compound 31, 2-benzyl-5-(2-methoxyethyl)-4-(pyrrolidin-1-ylmethyl)-1H-pyrazolo [4,3-c]pyridine-3,6(2H,5H)-dione]
Inhibition (%) of NOX activity: 82%

CCOCCCn1c(CN2CCCC2)c2c(=O)n(-c3ccc(F)cc3Cl)[nH]c2cc1=O [Compound 45, 2-(2-chloro-4-fluoro-phenyl)-5-(3-ethoxypropyl)-4-(pyrrolidin-1-ylmethyl)-1H-pyrazolo[4,3-c] pyridine-3,6(2H,5H)-dione]
Inhibition (%) of NOX activity: 86%

CCOCCCn1c(CN2CCCC2)c2c(=O)n(Cc3ccccc3)[nH]c2cc1=O [Compound 47, 2-benzyl-5-(3-ethoxypropyl)-4-(pyrrolidin-1-ylmethyl)-1H-pyrazolo[4,3-c]pyridine-3,6(2H,5H)-dione]
Inhibition (%) of NOX activity: 89%

Cn1[nH]c2cc(=O)n(Cc3ccc(Cl)cc3)c(CN3CCCC3)c2c1=O [Compound 52, 5-(4-chlorobenzyl)-2-methyl-4-(pyrrolidin-1-ylmethyl)-1H-pyrazolo[4,3-c]pyridine-3,6(2H,5H)-dione]
Inhibition (%) of NOX activity: 90%

CC(=O)Nc1cccc(Cn2c(CN3CCCC3)c3c(=O)n(-c4ccc(OCc5ccccc5)cc4)[nH]c3cc2=O)c1 [Compound 53, N-[3-({2-[4-(benzyloxy)phenyl]-3,6-dioxo-4-(pyrrolidin-1-ylmethyl)-1,2,3,6-tetrahydro-5H-pyrazolo[4,3-c]pyridin-5-yl}methyl)phenyl] acetamide]
Inhibition (%) of NOX activity: 86%

COCCn1c(COc2ccc(F)cc2)c2c(=O)n(-c3ccccc3Cl)[nH]c2cc1=O [Compound 58, 2-(2-chlorophenyl)-4-[(4-fluorophenoxy)methyl]-5-(2-methoxyethyl)-1H-pyrazolo[4,3-c]pyridine-3,6(2H,5H)-dione]
Inhibition (%) of NOX activity: 80%

Cn1[nH]c2cc(=O)n(Cc3ccccn3)c(COCc3ccccc3)c2c1=O [Compound 63, 4-[(benzyloxy)methyl]-2-methyl-5-(pyridin-2-ylmethyl)-1H-pyrazolo [4,3-c]pyridine-3,6 (2H,5H)-dione]
Inhibition (%) of NOX activity: 89%

Cn1[nH]c2cc(=O)n(Cc3cccc(N4CCOCC4)n3)c(COc3ccc(F)cc3)c2c1=O [Compound 65, 4-[(4-fluorophenoxy)methyl]-2-methyl-5-[(6-morpholin-4-ylpyridin-2-yl)methyl]-1H-pyrazolo[4,3-c] pyridine-3,6(2H,5H)-dione]
Inhibition (%) of NOX activity: 80%

Cn1c(C2CN(Cc3ccccc3)CCO2)c2c(=O)n(-c3ccccc3Cl)[nH]c2cc1=O (stereo not drawn) [Compound 84, 4-(4-benzylmorpholin-2-yl)-2-(2-chloro-phenyl)-5-methyl-1H-pyrazolo [4,3-c]pyridine-3,6 (2H,5H)-dione]
Inhibition (%) of NOX activity: 78%

Cn1c(COc2ccc(Cl)cc2)c2c(=O)n(-c3ccccc3Cl)[nH]c2cc1=O [Compound 92, 4-[(4-chlorophenoxy)methyl]-2-(2-chlorophenyl)-5-methyl-1H-pyrazolo[4,3-c] pyridine-3,6(2H,5H)-dione]
Inhibition (%) of NOX activity: 76%

CN(Cc1c2c(=O)n(-c3ccccc3Cl)[nH]c2cc(=O)n1CCc1ccccn1)c1ccccc1 [Compound 93, 2-(2-chlorophenyl)-4-{[methyl(phenyl)amino]methyl}-5-(2-pyri-din-2-ylethyl)-1H-pyrazolo[4,3-c] pyridine-3,6(2H,5H)-dione]
Inhibition (%) of NOX activity: 80%

CC(C)(C)OC(=O)N1CCC(Cn2c(COCc3ccccc3)c3c(=O)n(-c4ccccc4Cl)[nH]c3cc2=O)CC1 [Compound 100, tert-butyl 4-({4-[(benzyloxy)methyl]-2-(2-chlorophenyl)-3,6-dioxo-1,2,3,6-tetrahydro-5H-pyrazolo[4,3-c]pyri-din-5-yl}methyl)pipe-ridine-1-carboxylate]
Inhibition (%) of NOX activity: 78%

CCN(CC)CCCn1c(COCc2ccccc2)c2c(=O)n(-c3ccccc3Cl)[nH]c2cc1=O [Compound 102, 4-[(benzyloxy)methyl]-2-(2-chlorophenyl)-5-[3-(diethylamino)propyl]-1H-pyrazolo[4,3-c] pyridine-3,6(2H,5H)-dione]
Inhibition (%) of NOX activity: 80%

CN1CCC(Cn2c(COCc3ccccc3)c3c(=O)n(-c4ccccc4Cl)[nH]c3cc2=O)CC1 [Compound 106, 4-[(benzyloxy)methyl]-2-(2-chlorophenyl)-5-[(1-methylpiperidin-4-yl)methyl]-1H-pyrazolo [4,3-c]pyridine-3,6(2H,5H)-dione]
Inhibition (%) of NOX activity: 81%

Cn1c(COC(c2ccccc2)C(F)(F)F)c2c(=O)n(-c3ccccc3Cl)[nH]c2cc1=O (stereo not drawn) [Compound 108, 2-(2-chlorophenyl)-5-methyl-4-[(2,2,2-trifluoro-1-phenylethoxy)methyl]-1H-pyrazolo[4,3-c] pyridine-3,6(2H,5H)-dione]
Inhibition (%) of NOX activity: 75%

O=c1c2c(COCc3ccccc3)n(Cc3cnccn3)c(=O)cc2[nH]n1-c1ccccc1Cl [Compound 113, 4-[(benzyloxy)methyl]-2-(2-chlorophenyl)-5-(pyrazin-2-yl-methyl)-1H-pyrazolo[4,3-c]pyridine-3,6(2H,5H)-dione]
Inhibition (%) of NOX activity: 87%

CN(C)C(=O)Cn1c(COCc2ccccc2)c2c(=O)n(-c3ccccc3Cl)[nH]c2cc1=O [Compound 116, 2-{4-[(benzyloxy)methyl]-2-(2-chlorophenyl)-3,6-dioxo-1,2,3,6-tetrahydro-5H-pyrazolo[4,3-c]pyridin-5-yl)-N,N dimethyl acetamide]
Inhibition (%) of NOX activity: 81%

CN(CCCc1c2c(=O)n(-c3ccccc3Cl)[nH]c2cc(=O)n1C)c1ccccc1 [Compound 120, 2-(2-chlorophenyl)-5-methyl-4-{3-[methyl (phenyl)amino]propyl}-1H-pyrazolo[4,3-c] pyridine-3,6(2H,5H)-dione]
Inhibition (%) of NOX activity: 77%

Cn1c(CCCN2CCc3ccccc32)c2c(=O)n(-c3ccccc3Cl)[nH]c2cc1=O [Compound 123, 2-(2-chloro-phenyl)-4-[3-(2,3-dihydro-1H-indol-1-yl)propyl]-5-methyl-1H-pyrazolo[4,3-c] pyridine-3,6(2H,5H)-dione]
Inhibition (%) of NOX activity: 90%
